Results from patent US9630977B2, “Cephalosporin derivatives and pharmaceutical compositions thereof” (Legochem Biosciences, Inc., priority 2011, dated 2017).
≈ marks a conversion by molar mass, not a printed value.

Key:
Assay in all cases: In vitro antibacterial activity test (broth microdilution)
Format in all cases: cell-based
A. baumannii 46 = conditions: Acinetobacter baumannii; A. baumannii 46; read-out: MIC90
Description: (§1) To evaluate antibacterial activity of each of the compounds of Examples 1 to 68, in vitro antibacterial activity test was performed.
(§2) The in vitro antibacterial activity was evaluated by measuring MIC90 (ug/mL) of each of the compounds of Examples 1 to 68, which is defined as the lowest concentration of an antibiotic that will inhibit the visible growth of 90% of microorganisms after incubation as compared with a control group to which the antibiotic is not treated. MIC90 values were measured by the broth microdilution method developed by the Clinical and Laboratory Standards Institute (CLSI) (see CLSI M7-A5, Methods for Dilution Antimicrobial Susceptibility Test for Bacteria that Grow Aerobically-Fifth Edition (2000): CLSI, Villanova, Pa.).
(§3) In vitro antibacterial activity was measured with respect to the following 19 clinical isolates: M. catarrhalis; P. aeruginosa (5 strains); K. pneumoniae (6 strains); A. baumannii (3 strains); E. coli (2 strains); A. calcoaceticus; and E. cloacae.
(§4) Test compounds each (the cephalosporin derivative compounds prepared in Examples 1 to 68) were dissolved in DMSO at the concentration of 10,240 ug/mL, were diluted by two fold with DMSO, and then were diluted by twenty fold with sterilized distilled water. The final concentration in the antibacterial activity test was in the range of […] to 128 ug/mL, and the final concentration of DMSO used as an adjuvant was 2.5% (V/V).

A. baumannii 49 = conditions: Acinetobacter baumannii; A. baumannii 49; read-out: MIC90
Description: as §1, §2, §3, §4

A. baumannii 52 = conditions: Acinetobacter baumannii; A. baumannii 52; read-out: MIC90
Description: as §1, §2, §3, §4

[1] = test system: A. calcoaceticus ATCC15473; conditions: Acinetobacter calcoaceticus; A. calcoaceticus ATCC15473; read-out: MIC90
Description: as §1, §2, §3, §4

E. cloacae β19 = conditions: Enterobacter cloacae, read-out: MIC90
Description: as §1, §2, §3, §4

E. coli AG100 = conditions: Escherichia coli, AG100, E. coli AG100; read-out: MIC90
Description: as §1, §2, §3, §4

E. coli β4 = conditions: Escherichia coli, read-out: MIC90
Description: as §1, §2, §3, §4

K. pneumoniae 2011E = conditions: Klebsiella pneumoniae, 2011E, K. pneumoniae 2011E; read-out: MIC90
Description: as §1, §2, §3, §4

K. pneumoniae β14 = conditions: Klebsiella pneumoniae, read-out: MIC90
Description: as §1, §2, §3, §4

M. catarrhalis 2524 = conditions: Moraxella catarrhalis; M. catarrhalis 2524; read-out: MIC90
Description: as §1, §2, §3, §4

P. aeruginosa 1912E = conditions: Pseudomonas aeruginosa, 1912E, read-out: MIC90
Description: as §1, §2, §3, §4

P. aeruginosa 37 = conditions: Pseudomonas aeruginosa, 37, P. aeruginosa 37; read-out: MIC90
Description: as §1, §2, §3, §4

P. aeruginosa 40 = conditions: Pseudomonas aeruginosa, 40, P. aeruginosa 40; read-out: MIC90
Description: as §1, §2, §3, §4

P. aeruginosa 43 = conditions: Pseudomonas aeruginosa; P. aeruginosa 43; read-out: MIC90
Description: as §1, §2, §3, §4

P. aeruginosa 6065Y = conditions: Pseudomonas aeruginosa, read-out: MIC90
Description: as §1, §2, §3, §4

Row | SMILES | MIC90 (A. baumannii 46) [µg/mL] | MIC90 (A. baumannii 49) [µg/mL] | MIC90 (A. baumannii 52) [µg/mL] | MIC90 [1] [µg/mL] | MIC90 (E. cloacae β19) [µg/mL] | MIC90 (E. coli AG100) [µg/mL] | MIC90 (E. coli β4) [µg/mL] | MIC90 (K. pneumoniae 2011E) [µg/mL] | MIC90 (K. pneumoniae β14) [µg/mL] | MIC90 (M. catarrhalis 2524) [µg/mL] | MIC90 (P. aeruginosa 1912E) [µg/mL] | MIC90 (P. aeruginosa 37) [µg/mL] | MIC90 (P. aeruginosa 40) [µg/mL] | MIC90 (P. aeruginosa 43) [µg/mL] | MIC90 (P. aeruginosa 6065Y) [µg/mL]
1 | Cn1cc(O)c(=O)cc1C(=O)NCCNc1c[n+](CC2=C(C(=O)[O-])N3C(=O)[C@@H](NC(=O)/C(=N\OC(C)(C)C(=O)O)c4csc(N)n4)C3SC2)cnc1N (some centres unmarked) [Compound 2] | 4 (≈ 5.18 µM) | > 128 | > 128 | 2 (≈ 2.59 µM) | > 128 | 0.25 (≈ 0.324 µM) | 4 (≈ 5.18 µM) | 4 (≈ 5.18 µM) | 64 (≈ 82.9 µM) | 1 (≈ 1.3 µM) | 2 (≈ 2.59 µM) | 4 (≈ 5.18 µM) | 4 (≈ 5.18 µM) | 8 (≈ 10.4 µM) | 16 (≈ 20.7 µM)
2 | C[C@H](O/N=C(\C(=O)N[C@@H]1C(=O)N2C(C(=O)[O-])=C(C[n+]3cnc(N)c(NCCNC(=O)c4cc(=O)c(O)cn4O)c3)CSC12)c1csc(N)n1)C(=O)O (some centres unmarked) [Compound 3] | 2 (≈ 2.63 µM) | > 128 | 128 (≈ 168 µM) | 0.25 (≈ 0.329 µM) | 2 (≈ 2.63 µM) | < 0.0625 | 1 (≈ 1.32 µM) | 1 (≈ 1.32 µM) | 64 (≈ 84.2 µM) | 2 (≈ 2.63 µM) | 32 (≈ 42.1 µM) | 1 (≈ 1.32 µM) | 0.125 (≈ 0.165 µM) | 0.25 (≈ 0.329 µM) | 0.5 (≈ 0.658 µM)
3 | CN(CCNc1c[n+](CC2=C(C(=O)[O-])N3C(=O)[C@@H](NC(=O)/C(=N\OC(C)(C)C(=O)O)c4csc(N)n4)C3SC2)cnc1N)C(=O)c1ccc(O)c(O)c1 (some centres unmarked) [Compound 27] | 16 (≈ 20.8 µM) | > 128 | > 128 | 4 (≈ 5.19 µM) | 16 (≈ 20.8 µM) | 1 (≈ 1.3 µM) | 2 (≈ 2.59 µM) | 2 (≈ 2.59 µM) | 32 (≈ 41.5 µM) | 0.25 (≈ 0.324 µM) | 1 (≈ 1.3 µM) | 2 (≈ 2.59 µM) | 2 (≈ 2.59 µM) | 1 (≈ 1.3 µM) | 4 (≈ 5.19 µM)
4 | CC(C)(O/N=C(\C(=O)N[C@@H]1C(=O)N2C(C(=O)[O-])=C(C[n+]3cnc(N)c(NC(=O)CCNC(=O)c4ccc(O)c(O)c4)c3)CSC12)c1csc(N)n1)C(=O)O (some centres unmarked) [Compound 28] | 8 (≈ 10.2 µM) | > 128 | 16 (≈ 20.4 µM) | 1 (≈ 1.27 µM) | 128 (≈ 163 µM) | > 128 | 8 (≈ 10.2 µM) | 8 (≈ 10.2 µM) | 64 (≈ 81.6 µM) | 8 (≈ 10.2 µM) | 32 (≈ 40.8 µM) | 8 (≈ 10.2 µM) | 16 (≈ 20.4 µM) | 4 (≈ 5.1 µM) | 16 (≈ 20.4 µM)
5 | CN(CCNc1c[n+](CC2=C(C(=O)[O-])N3C(=O)[C@@H](NC(=O)/C(=N\OC(C)(C)C(=O)O)c4csc(N)n4)C3SC2)cnc1N)Cc1ccc(O)c(O)c1 (some centres unmarked) [Compound 29] | 8 (≈ 10.6 µM) | 32 (≈ 42.3 µM) | 32 (≈ 42.3 µM) | 4 (≈ 5.29 µM) | 8 (≈ 10.6 µM) | 2 (≈ 2.64 µM) | 2 (≈ 2.64 µM) | 8 (≈ 10.6 µM) | 16 (≈ 21.1 µM) |  | 2 (≈ 2.64 µM) | 2 (≈ 2.64 µM) | 4 (≈ 5.29 µM) | 4 (≈ 5.29 µM) | 8 (≈ 10.6 µM)
6 | CC(C)(O/N=C(\C(=O)N[C@@H]1C(=O)N2C(C(=O)[O-])=C(C[n+]3cnc(N)c(NCCNC(=O)c4ccc(O)c(O)c4)c3)CSC12)c1csc(N)n1)C(=O)O (some centres unmarked) [Compound 30] | 1 (≈ 1.32 µM) | > 128 | 128 (≈ 169 µM) | 1 (≈ 1.32 µM) | 4 (≈ 5.29 µM) | 0.125 (≈ 0.165 µM) | 2 (≈ 2.64 µM) | 0.5 (≈ 0.661 µM) | 16 (≈ 21.1 µM) |  | 1 (≈ 1.32 µM) | 2 (≈ 2.64 µM) | 0.5 (≈ 0.661 µM) | 0.5 (≈ 0.661 µM) | 0.5 (≈ 0.661 µM)
7 | CC(C)(O/N=C(\C(=O)N[C@@H]1C(=O)N2C(C(=O)[O-])=C(C[n+]3cnc(N)c(N)c3)CSC12)c1csc(N)n1)C(=O)O (some centres unmarked) [Compound 36] | 64 (≈ 111 µM) | > 128 | > 128 | 2 (≈ 3.46 µM) | > 128 | 0.5 (≈ 0.866 µM) | 16 (≈ 27.7 µM) | 0.5 (≈ 0.866 µM) | 16 (≈ 27.7 µM) |  | 8 (≈ 13.9 µM) | > 128 | 16 (≈ 27.7 µM) |  | 64 (≈ 111 µM)
